Source: patent publication US12590134B2, “GLP-1 agonist polypeptide compound and salt thereof, synthesis method therefor and use thereof” (Sinopep-Allsino Biopharmaceutical Co., Ltd., priority 2020, dated 2026)
Like-named read-outs stand apart in the source and are kept apart here. One block for each molecule: values may come before it.

Legend:
human GLP-1R = human GLP-1R (Homo sapiens, UniProt P43220); experiment: cAMP signal analysis of GLP-1R (GLP-1 receptor agonist activity); format: cell-based
human GLP-1R, sequence (P43220 24-463): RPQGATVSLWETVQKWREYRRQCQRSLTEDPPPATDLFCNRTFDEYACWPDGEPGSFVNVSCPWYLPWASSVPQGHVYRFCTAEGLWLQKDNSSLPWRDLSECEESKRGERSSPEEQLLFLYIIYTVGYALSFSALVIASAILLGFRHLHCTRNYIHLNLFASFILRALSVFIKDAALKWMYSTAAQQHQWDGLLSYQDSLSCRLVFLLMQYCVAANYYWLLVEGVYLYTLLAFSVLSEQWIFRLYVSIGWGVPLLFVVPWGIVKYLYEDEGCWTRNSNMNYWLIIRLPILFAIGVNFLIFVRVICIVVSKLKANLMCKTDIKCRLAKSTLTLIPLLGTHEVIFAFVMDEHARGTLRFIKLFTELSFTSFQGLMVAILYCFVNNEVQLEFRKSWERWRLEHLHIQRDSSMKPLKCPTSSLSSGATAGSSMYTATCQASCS
Method: A wild human GLP-1R (NM_002062.5) was subjected to transient transfection and screened for two weeks by 600 μg/ml of hygromycin-B to obtain a cell line which was recombined and integrated into an FlpInCHO (Invitrogen) cell stable expression system. The culture condition of the FlpInCHO cell was as follows: 10% of heat-inactivated fetal calf serum was added to a DMEM culture solution, and the culture was performed in a 5% carbon dioxide cell incubator.
In the test, an LANCE cAMP detection kit was used for measuring the cAMP signal intensity.

[1] = Pharmacokinetic comparison experiment in rats, single subcutaneous injection; details: rat, in vivo, sc, 0.02 mg/kg
Method: A single subcutaneous injection was performed with a dose of 0.02 mg/kg; blood collection was performed by tail clipping, and the blood collection time points were: 0 h, 15 min, 30 min, 1 h, 2 h, 3 h, 4 h, 6 h, 8 h, 24 h, 48 h and 72 h. The compound concentration in plasma was determined by LC-MS/MS, all data were collected and exported by Unifi 1.9.3 software, and Excel software was used for data calculation. A non-compartmental model of DAS 3.0 software was used to calculate the pharmacokinetic parameters of rats after administration.

db/db mice = experiment: Glucose lowering experiment, random blood glucose of db/db mice after single subcutaneous injection; format: in vivo
Method: (§1) After DB/DB mice with high blood glucose were acclimated for 5-7 days, a non-fasting random blood glucose level was determined; after fasting for 12 h, a fasting blood glucose level was determined by a rapid blood glucose meter. […] Mice in each test drug group and each control group received single subcutaneous injection of each test drug or a control solution respectively, and the mice in the model control group received single subcutaneous injection of PBS buffer solution; and the experiment grouping and dosage setting conditions were shown in Table 1:
Blood glucose level: the blood was taken from the tail tip of the mice to measure the blood glucose level with a fast blood glucose meter and blood glucose test strips. […]
The glucose lowering effect of the test article was evaluated by BG (mmol/L) or AUC (mmol/L·min).
(§2) T test was used for comparison between two groups. One-way ANOVA was used for comparison among three or more groups. If there was a significant difference in F value, multiple comparisons should be performed after ANOVA analysis. All data analyses were performed with SPSS 17.0. If p<0.05, it was considered a significant difference.

[2] = Effect on random body weight of db/db mice after single subcutaneous injection; format: in vivo; set-up: unit not given here
Method: as §1
Body weight: after grouping the animals, the body weight was measured once a day at a fixed time period
as §2

EC50 (human GLP-1R; CHO cell line stably expressing human GLP-1R, downstream cAMP signal, LANCE cAMP kit, read-out: GLP-1R EC50): 2.84 ± 0.513 nM
CL/F ([1]; male): 0.133 mL/min/kg
half-life ([1]; male): 923 min
AUC(0-inf) [1]: 2810 ng·h/mL
AUC(0-t) [1]: 2630 ng·h/mL
AUMC(0-t), Mean [1]: 73156.82 h * h * μg/L
AUMC(0-∞), Mean [1]: 89827.62 h * h * μg/L
Cmax [1]: 66.8 ng/mL
R_AUC(t/∞), Mean [1]: 93.53%
Tmax [1]: 24 h
Vd/F [1]: 0.17 L/kg
Molecule: CC[C@H](C)[C@H](NC(=O)[C@H](Cc1ccccc1)NC(=O)[C@H](CCC(=O)O)NC(=O)[C@H](CCCCNC(=O)COCCOCCNC(=O)COCCOCCNC(=O)CC[C@H](NC(=O)CCCCCCCCCCCCCCCCC(=O)O)C(=O)O)NC(=O)[C@H](C)NC(=O)[C@H](C)NC(=O)[C@H](CCC(N)=O)NC(=O)[C@](C)(CC)NC(=O)[C@H](CCC(=O)O)NC(=O)[C@H](CC(C)C)NC(=O)[C@H](Cc1ccc(O)cc1)NC(=O)[C@H](CO)NC(=O)[C@H](CO)NC(=O)[C@@H](NC(=O)[C@H](CC(=O)O)NC(=O)[C@H](CO)NC(=O)[C@@H](NC(=O)[C@H](Cc1ccccc1)NC(=O)[C@@H](NC(=O)CNC(=O)[C@H](CCC(=O)O)NC(=O)[C@](C)(CC)NC(=O)[C@@H](N)Cc1c[nH]cn1)[C@@H](C)O)[C@@H](C)O)C(C)C)C(=O)N[C@@H](C)C(=O)N[C@@H](Cc1c[nH]c2ccccc12)C(=O)N[C@@H](CC(C)C)C(=O)N[C@H](C(=O)N[C@@H](CCCNC(=N)N)C(=O)NCC(=O)N[C@@H](CCCNC(=N)N)C(=O)NCC(=O)O)C(C)C [NO: 3]

Molecule: CC[C@H](C)[C@H](NC(=O)[C@H](Cc1ccccc1)NC(=O)[C@H](CCC(=O)O)NC(=O)[C@H](CCCCNC(=O)COCCOCCNC(=O)COCCOCCNC(=O)CC[C@H](NC(=O)CCCCCCCCCCCCCCCCC(=O)O)C(=O)O)NC(=O)[C@H](C)NC(=O)[C@H](C)NC(=O)[C@H](CCC(N)=O)NC(=O)CNC(=O)[C@H](CCC(=O)O)NC(=O)[C@H](CC(C)C)NC(=O)[C@H](Cc1ccc(O)cc1)NC(=O)[C@H](CO)NC(=O)[C@H](CO)NC(=O)[C@@H](NC(=O)[C@H](CC(=O)O)NC(=O)[C@H](CO)NC(=O)[C@@H](NC(=O)[C@H](Cc1ccccc1)NC(=O)[C@@H](NC(=O)CNC(=O)[C@H](CCC(=O)O)NC(=O)[C@](C)(NC(=O)[C@@H](N)Cc1c[nH]cn1)C(F)(F)C(F)(F)F)[C@@H](C)O)[C@@H](C)O)C(C)C)C(=O)N[C@@H](C)C(=O)N[C@@H](Cc1c[nH]c2ccccc12)C(=O)N[C@@H](CC(C)C)C(=O)N[C@H](C(=O)N[C@@H](CCCNC(=N)N)C(=O)NCC(=O)N[C@@H](CCCNC(=N)N)C(=O)NCC(=O)O)C(C)C [NO: 22]
EC50 (human GLP-1R): 0.63 ± 0.0519 nM

Molecule: Semaglutide
Random blood glucose (db/db mice; 30 nmol/kg SC group, baseline at grouping before administration, X ± s, n = 8): 25.8 ± 3.9 mmol/L
Blood glucose at different time after administration, 0 h (db/db mice; 30 nmol/kg SC single dose, 0 h): 26.8 ± 3.2 mmol/L
Blood glucose at different time after administration, 2 h (db/db mice; 30 nmol/kg SC single dose, 2 h): 14.9 ± 4.1 mmol/L
Blood glucose at different time after administration, 4 h (db/db mice; 30 nmol/kg SC single dose, 4 h): 13.2 ± 3.2 mmol/L
Blood glucose at different time after administration, 6 h (db/db mice; 30 nmol/kg SC single dose, 6 h): 13.3 ± 3.7 mmol/L
Blood glucose at different time after administration, 10 h (db/db mice; 30 nmol/kg SC single dose, 10 h): 11.5 ± 3.7 mmol/L
Blood glucose at different time after administration, 24 h (db/db mice; 30 nmol/kg SC single dose, 24 h): 12.6 ± 5.6 mmol/L
Blood glucose at different time after administration, 36 h (db/db mice; 30 nmol/kg SC single dose, 36 h): 21.1 ± 4.1 mmol/L
Blood glucose at different time after administration, 48 h (db/db mice; 30 nmol/kg SC single dose, 48 h): 21.3 ± 5.6 mmol/L
Blood glucose at different time after administration, 56 h (db/db mice; 30 nmol/kg SC single dose, 56 h): 28.3 ± 4.8 mmol/L
Blood glucose at different time after administration, 72 h (db/db mice; 30 nmol/kg SC single dose, 72 h): 32.3 ± 1.9 mmol/L
Random body weight at different time after administration, Day 0 ([2]; 30 nmol/kg SC single dose, Day 0): 41.62 ± 1.56
Random body weight at different time after administration, Day 1 ([2]; 30 nmol/kg SC single dose, Day 1): 38.86 ± 1.37
Random body weight at different time after administration, Day 2 ([2]; 30 nmol/kg SC single dose, Day 2): 40.56 ± 1.51
Random body weight at different time after administration, Day 3 ([2]; 30 nmol/kg SC single dose, Day 3): 41.03 ± 1.72
Random body weight at different time after administration, Day −1 ([2]; 30 nmol/kg group, Day −1 (before administration)): 40.24 ± 1.44
Random body weight at different time after administration, Day −2 ([2]; 30 nmol/kg group, Day −2 (before administration), X ± s, n = 8): 41.37 ± 1.64
